From US10865203B2, “Ligands selective to alpha 6 subunit-containing GABAA receptors and their methods of use” (UWM Research Foundation, Inc., priority 2015, dated 2020)
“Also recorded” adds a separate entry of the source.

Assays:
[1] = tested on: αxβx, αxβ3γ2 and αβδ receptors; assay: Electrophysiology in Xenopus oocytes, functional screening over all tested receptors; format: cell-based, rat
Protocol: Mature female Xenopus laevis (Nasco, Fort Atkinson, Wis., USA) were anaesthetized in a bath of ice-cold 0.17% Tricain (Ethyl-m-aminobenzoat, Sigma-Aldrich, St. Louis, Mo., USA) before decapitation and transfer of the frog's ovary to ND96 medium (96 mM NaCl, 2 mM KCl, 1 mM MgCl2, 5 mM HEPES; pH 7.5). Following incubation in 1 mg/mL collagenase (Sigma-Aldrich, St. Louis, Mo., USA) for 30 min, stage 5 to 6 oocytes were singled out of the ovary and defolliculated using a platinum wire loop. Oocytes were stored and incubated at 18° C. in NDE medium (96 mM NaCl, 2 mM KCl, 1 mM MgCl2, 5 mM HEPES, 1.8 mM CaCl2; pH 7.5) that was supplemented with 100 U per mL-1 penicillin, 100 μg per mL-1 streptomycin and 2.5 mM pyruvate. Oocytes were injected with an aqueous solution of mRNA. A total of 2.5 ng of mRNA per oocyte was injected. […] Maximum currents measured in mRNA injected oocytes were in the microampere range for all receptor subtypes. […] Data were digitized using a Digidata 1322A or 1550 data acquisition system (Axon Instruments, Union City, Calif., USA), recorded using Clampex 10.5 software (Molecular Devices, Sunnyvale, Calif., USA), and analyzed using Clampfit 10.5 and GraphPad Prism 6.0 (La Jolla, Calif., USA) software. […]
For selected test compounds full dose response curves were recorded in α1-6β3γ2 receptors. […]

[2] = tested on: GABA-A receptors, including α6 GABA-ARs; assay: Modulation of GABA-A receptors by constituent of Cl leaves
[3] = Microsomal stability assay, human liver microsomes; format: in vitro ADME; settings: 10 μM test compound, 0.5 mg/mL protein, 37° C.
Protocol: (§1) 4 μL of 1 mM test compound at a final concentration of 10 μM dissolved in DMSO/ACN/Methanol/Ethanol was preincubated at 37° C. for 5 minutes on a digital heating shaking dry bath (Fischer scientific, Pittsburgh, Pa.) in a mixture containing 282 μL of water, 80 μL of phosphate buffer (0.5 M, pH 7.4), 20 μL of NADPH Regenerating System Solution A (BD Bioscience, San Jose, Calif.) and 4 μL of NADPH Regenerating System Solution B (BD Bioscience, San Jose, Calif.) in a total volume of 391.2 μL. Following preincubation, the reaction was initiated by addition of 8.8 μL of either human liver microsomes (BD Gentest, San Jose, Calif.), mouse liver microsomes (Life technologies, Rockford, Ill.), at a protein concentration of 0.5 mg/mL. Aliquots of 50 μL were taken at time intervals of 0 (without microsomes), 10, 20, 30, 40, 50 and 60 minutes. Each aliquot was added to 100 μL of cold acetonitrile solution containing 1 μM/2 μM internal standard. This was followed by sonication for 10 seconds and centrifugation at 10,000 rpm for 5 minutes. 100 μL of the supernatant was transferred into Spin-X HPLC filter tubes (Corning Incorporated, NY) and centrifuged at 13,000 rpm for 5 minutes. […] The ratio of the peak areas of the internal standard and test compound was calculated for every time point and the natural log of the ratio were plotted against time to determine the linear slope (k). […] All experiments were repeated three times in duplicates.

[4] = Microsomal stability assay, mouse liver microsomes; format: in vitro ADME; settings: 10 μM test compound, 0.5 mg/mL protein, 37° C.
Protocol: as §1

| Structure (SMILES) | activity in all tested receptors [1] | modulation of GABA-A receptors [2] | % left after 1 hr. (HLM) [3] [%] | % left after 1 hr. (MLM) [4] [%] | Half-life (min) (MLM) [4] |
| --- | --- | --- | --- | --- | --- |
| COc1ccccc1-n1nc2c3cc(Cl)ccc3[nH]cc-2c1=O [LAU 165, 8-Chloro-2-(2-methoxyphenyl)-2H-pyrazolo[4,3-c]quinolin-3(5H)-one] | inactive in all receptors that were tested so far; also recorded: essentially inactive in all tested receptors |  |  |  |  |
| COc1c(O)cc2oc(-c3ccc(O)cc3)cc(=O)c2c1O [hispidulin] |  | positive allosteric modulator |  |  |  |
| [2H]C([2H])([2H])Oc1ccccc1-n1nc2c3cc(Cl)ccc3[nH]cc-2c1=O [DK-I-87-1, 8-Chloro-2-(2-methoxy-d3-phenyl)-2,5-dihydro-3H-pyrazolo[4,3-c]quinolin-3-one] | inactive in all receptors that were tested so far; also recorded: essentially inactive in all tested receptors |  | 94.7 ± 0.07 | 94.91 ± 0.10 | 993 ± 189 |
